Data as given in article PMC6216040, “Repurposing of an old drug: In vitro and in vivo efficacies of buparvaquone against Echinococcus multilocularis” (International Journal for Parasitology: Drugs and Drug …, 2018).
Like-named read-outs stand apart in the source and are kept apart here.

Tested on: E. multilocularis metacestodes
Assay: PGI-assay: drug-induced damage on in vitro cultured metacestodes (Pathogen Box screening cascade and EC50)
Assay type: cell-based, Echinococcus multilocularis
Details: for PGI release, % of the Tx-100 control, 5d / PGI release, % of the Tx-100 control, 12d / cytotoxicity at 10 µM: 10 µM, singlets; for PGI release, % of Tx-100 control, average, 5d / PGI release, % of Tx-100 control, average, 12d: confirmatory screening at 10 µM in triplicates, values as % of Tx-100 control; for cytotoxicity at 10 µM: Echinococcus multilocularis
[1] = 120 h, 5 days of incubation, read-out: PGI release, % of the Tx-100 control, 5d
[2] = 288 h, 12 days of incubation, read-out: PGI release, % of the Tx-100 control, 12d

Compound	PGI release, % of the Tx-100 control, 5d (5 days of incubation) [%]	PGI release, % of the Tx-100 control, 12d (12 days of incubation) [%]	PGI release, % of Tx-100 control, average, 5d (5 days of incubation) [%]	PGI release, % of Tx-100 control, average, 12d (12 days of incubation) [%]	cytotoxicity at 10 µM [1] [%]	cytotoxicity at 10 µM [2] [%]
COC(=O)c1ccc(F)cc1NS(=O)(=O)c1cccc(-c2cnn(Cc3ccccc3)c2)c1 [MMV688350]	-0.16	0.44				
Cc1cccc(Cn2ccc(NC(=O)c3ccc4c(c3)OCO4)n2)c1 [MMV676386]	0.18	-0.91				
CNc1cc(C)nc(C2CN(C(=O)c3n[nH]c4ccccc34)CCO2)c1 (centres unmarked) [MMV689709]	-5.26	58.81	-0.32	-0.96		
COc1ccc2nc(C)cc(OCC(=O)Nc3ccccc3OC)c2c1 [MMV687188]	0.23	4.44				
Nc1nccc2ccc(-c3ccc4nccn4c3)cc12 [MMV023233]	-0.34	-0.36				
c1cncc(NCc2ccc(-c3cc4ccncc4cc3OC3CCNCC3)s2)c1 [MMV023969]	-3.87	-3.02				
C[C@]1(COc2ccc(N3CCC(Oc4ccc(OC(F)(F)F)cc4)CC3)cc2)Cn2cc([N+](=O)[O-])nc2O1 [MMV688262, Delaminid, reference compound]	-3.74	-0.38				
COc1cc(C(F)(F)F)nc2ccc(C)c(N)c12 [MMV047015]	-0.69	-0.79				
Cc1cc(OCC(=O)Nc2ccc(C(C)C)cc2)n(C)c(=O)c1C#N [MMV1198433]	2.43	-0.19				
CC(=O)NC[C@H]1CN(c2ccc(N3CCSCC3)c(F)c2)C(=O)O1 [MMV688756, Sutezolid, reference compound]					-3.45	-0.37
Clc1cccc(CO[C@H]2CCc3ccccc3[C@@H]2n2ccnn2)c1 [MMV676159]	-0.04	-0.65				
c1cc(C2=NCCN2)cc(-c2cc(-c3ccc(C4=NCCN4)cc3)no2)c1 [MMV688361]	-0.63	-1.49				
Cc1cc(C)n(-c2ccc(NC(=O)C3CCN(Cc4cnc(C)s4)CC3)cc2)n1 [MMV007625]	0.65	25.58	-1.00	-1.56		
COc1ccc(CN2CCOc3ccc(C(C)(O)CN(C)C)cc3C2)cc1C (centres unmarked) [MMV008439]	-0.31	-1.11				
COc1cccc2c(C)nc(N=C(N)N)nc12 [MMV000907]	-2.91	1.72				
O=C(NCc1ccco1)N1CCN(Cc2ccc(Cl)s2)CC1 [MMV688555]	1.40	3.17				
CCCn1nnc(NC(=O)COc2ccc(C3CCCCC3)cc2)n1 [MMV676597]	0.61	0.33				
Cc1cccc(-c2nc(Nc3ccncn3)c3sccc3n2)n1 [MMV688122]	0.14	95.49	-0.80	-0.86		
O=C(Nc1ccnc(-c2cccnc2)n1)c1cc(C(F)(F)F)cc(C(F)(F)F)c1 [MMV019838]	1.37	-0.96				
CNC(=O)CNc1nc(-c2ccccn2)nc2scc(-c3ccccc3)c12 [MMV1029203]	-5.65	6.41				
COc1cccc(CC(=O)N2CCC(n3c(C)nc4ccc(F)cc43)CC2)c1 [MMV020081]	-1.15	-0.33				
CCN(CC)C(=O)N1CCN(C)CC1 [MMV002816, Diethylcarbamazine, reference compound]					-0.92	-1.56
[H]/N=C(/N)N[C@H]1[C@H](O)[C@@H](O)[C@H](O[C@@H]2O[C@@H](C)[C@](O)(C=O)[C@H]2O[C@@H]2O[C@@H](CO)[C@H](O)[C@@H](O)[C@@H]2NC)[C@@H](N/C(N)=N\[H])[C@@H]1O [MMV688994, Streptomycin, reference compound]					-0.55	0.19

Compound	PGI release, % of the Tx-100 control, 5d (5 days of incubation) [%]	PGI release, % of the Tx-100 control, 12d (12 days of incubation) [%]	PGI release, % of Tx-100 control, average, 5d (5 days of incubation) [%]	PGI release, % of Tx-100 control, average, 12d (12 days of incubation) [%]	cytotoxicity at 10 µM [1] [%]	cytotoxicity at 10 µM [2] [%]
O=C(Nc1nc(-c2ccccn2)cs1)c1cncn1-c1ccccc1 [MMV676512]	0.19	0.30				
Cc1cc2nc(NC(=O)C(C)(C)C)nc(Cl)c2n1Cc1ccc(Cl)cc1 [MMV688704]	5.09	-0.53				
O=C(OCc1ccccc1)N1CCC(c2cc(-c3ccncc3)c(-c3ccc(F)cc3)[nH]2)CC1 [MMV688509]	0.97	2.28				
Cc1noc(C)c1C(=O)N1CCCC(c2[nH]c3c(C)cccc3c2-c2ccncc2)C1 (centres unmarked) [MMV020623]	-0.37	-4.10				
N#Cc1nc(-c2ccccc2)oc1S(=O)(=O)c1ccc(Cl)cc1 [MMV676412]	0.33	0.62				
CS(=O)(=O)c1ccccc1C(=O)N(Cc1ccccc1)c1ccccc1 [MMV688798]	13.11	63.28	-0.92	-1.65		
Nc1ccc(C(=O)Nc2ccc(-c3nc4ccccc4o3)cc2)cc1 [MMV007920]	0.08	-0.69				
Nc1nc2cc(-c3cncc(Oc4ccc(F)cc4)c3)ccc2[nH]1 [MMV687248]	2.44	3.04				
O=C1N(Cc2cc3ccccc3s2)CC2CN(Cc3ccccc3)CCN12 (centres unmarked) [MMV084603]	-3.64	0.62				
Levofloxacin (-)-ofloxacin [MMV687798, reference compound]	-0.0541	-0.33				
CCC(Sc1nc2ccccc2o1)C(=O)Nc1nccs1 (centres unmarked) [MMV676383]	0.61	4.85				
O=C1O[C@@H](CO)CN1c1cc(F)c(C2=CCN(Cc3ccccc3)CC2)c(F)c1 [MMV687729]	-0.40	-0.63				
COc1cc(Br)cc2cc(C(=O)Nc3cccc(C(F)(F)F)c3)c(=O)oc12 [MMV688891]	-4.56	-1.74				
COC(=O)C1=C(C)NC(C)=C(C(=O)OC(C)C)C1c1cccc2nonc12 (centres unmarked) [MMV001493, Isradipine, reference compound]					0.84	0.0436
COc1cc(NC(=O)Cc2nn(C)c(=O)c3ccccc23)ccc1Cl [MMV676053]	-2.85	-1.21				
CS(=O)(=O)c1ccc(C(=O)N(CC2CCCO2)c2nc3ccccc3s2)cc1[N+](=O)[O-] (centres unmarked) [MMV688761]	1.26	0.42				
O=C(NC1CC1)c1ccc(CSCc2ccccc2Cl)o1 [MMV007803]	-0.54	-0.13				
O=C(C1CCN(c2cc(-n3cccc3)ncn2)CC1)N1CCc2ccccc2C1 [MMV687172]	1.69	-1.50				
COc1ccc(Nc2ccccc2NC(=O)c2ccc(=O)[nH]c2)cc1 [MMV676554]	0.17	3.85				
C[C@H]1COC2(CCN(c3nc(=O)c4cc(C(F)(F)F)cc([N+](=O)[O-])c4s3)CC2)O1 [MMV676603]	-4.72	4.80				
COc1ccc(Cl)cc1NC(=O)CN(C)C(=O)c1cnn(-c2ccccc2)n1 [MMV020710]	-1.15	-0.53				
COc1cc(C2=NCCN2)ccc1-c1cn(-c2cccc(C3=NCCN3)c2)nn1 [MMV688407]	1.48	1.29				
